In PMC6548519 (Nature chemical biology, 2019):

Key:
[1] = biological target: T1, FAAH-4 (Caenorhabditis elegans, UniProt Q9U217); type: biochemical
T1 sequence (Q9U217 1-647): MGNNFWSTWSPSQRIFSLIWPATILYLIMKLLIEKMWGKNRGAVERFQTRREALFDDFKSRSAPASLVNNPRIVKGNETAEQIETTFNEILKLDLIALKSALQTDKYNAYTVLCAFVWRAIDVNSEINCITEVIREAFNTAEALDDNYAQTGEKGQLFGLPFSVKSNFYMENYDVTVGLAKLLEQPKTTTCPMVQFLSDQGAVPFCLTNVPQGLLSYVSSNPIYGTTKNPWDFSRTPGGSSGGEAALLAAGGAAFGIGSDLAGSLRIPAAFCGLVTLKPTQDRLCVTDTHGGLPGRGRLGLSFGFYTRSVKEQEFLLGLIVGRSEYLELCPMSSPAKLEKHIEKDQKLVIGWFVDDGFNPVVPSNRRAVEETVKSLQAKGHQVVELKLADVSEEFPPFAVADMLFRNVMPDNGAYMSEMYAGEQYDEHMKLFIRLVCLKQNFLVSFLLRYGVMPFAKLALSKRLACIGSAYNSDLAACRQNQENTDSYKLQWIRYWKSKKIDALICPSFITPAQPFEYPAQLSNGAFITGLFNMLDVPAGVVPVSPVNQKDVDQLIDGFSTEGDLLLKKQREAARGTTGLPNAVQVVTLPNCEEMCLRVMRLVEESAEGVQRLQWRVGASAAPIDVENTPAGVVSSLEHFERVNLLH

[2] = biological target: T2, FAAH-1 (Caenorhabditis elegans, UniProt Q17449); experiment: MS-based competitive ABPP of worms treated in vivo; type: cell-based
T2 sequence (Q17449 15-572): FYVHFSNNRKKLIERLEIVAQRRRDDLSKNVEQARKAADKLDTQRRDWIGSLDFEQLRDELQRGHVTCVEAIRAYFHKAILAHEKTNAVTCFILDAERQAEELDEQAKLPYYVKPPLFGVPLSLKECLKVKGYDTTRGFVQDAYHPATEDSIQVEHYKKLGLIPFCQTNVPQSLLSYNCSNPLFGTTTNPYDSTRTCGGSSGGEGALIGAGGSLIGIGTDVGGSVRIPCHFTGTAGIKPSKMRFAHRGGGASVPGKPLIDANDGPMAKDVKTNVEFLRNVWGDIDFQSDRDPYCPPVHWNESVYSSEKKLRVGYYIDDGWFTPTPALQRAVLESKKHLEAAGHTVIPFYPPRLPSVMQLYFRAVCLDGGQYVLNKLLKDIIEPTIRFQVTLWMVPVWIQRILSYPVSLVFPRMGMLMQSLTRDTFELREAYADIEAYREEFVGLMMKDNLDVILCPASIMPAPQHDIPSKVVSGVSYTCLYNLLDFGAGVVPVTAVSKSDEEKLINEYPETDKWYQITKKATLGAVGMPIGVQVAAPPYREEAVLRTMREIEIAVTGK

| Structure (SMILES) | IC50 [1] [µM] | MS-based competitive ABPP of worms treated in vivo (50 μM) [2] |
| --- | --- | --- |
| O=C(Oc1ccc([N+](=O)[O-])cc1)N1CCC(C(O)(c2ccc3c(c2)OCO3)c2ccc3c(c2)OCO3)CC1 [compound 1, JZL184] | 11 |  |
| NC(=O)c1cccc(-c2cccc(OC(=O)NC3CCCCC3)c2)c1 [compound 6, URB597] |  | URB597 also strongly engaged C. elegans FAAH-1 in vivo |
